Data as given in patent US5132432A, “Chemically reactive pyrenyloxy sulfonic acid dyes” (Molecular Probes, Inc., priority 1989, dated 1992).
Where a name gives a salt, the structure may show the parent alone. One block for each molecule: values may come before it.

What was measured:
[1] = Quantum yield relative to quinine sulfate; type: physicochemical; conditions: in water
From the text: An estimate of the quantum yield of the dyes relative to quinine sulfate (quantum yield=0.55 in 1N sulfuric acid) was obtained by integrating the emission spectrum of the dye excited at the same wavelength and optical density as the standard.

[2] = Spectral properties (absorption/emission) of new pyrenyloxy sulfonic acid dyes, Table 4; type: physicochemical; conditions: 50 mM aqueous potassium phosphate buffer at pH 8.0; for Em Max: uncorrected
Method: Stock solutions were prepared by accurately weighing and dissolving 5-10 mg samples of the compounds in 2.000 ml water. A 10 μl aliquot of the stock solution was diluted into 2.00 ml of 50 mM potassium phosphate buffer at pH 8.0. Absorbance solutions were prepared by further diluting 200 μl of the diluted stock solution to 2.000 ml with 50 mM potassium phosphate buffer at pH 8.0. Absorption data was collected on an IBM Model 9420 UV/Visible Spectrophotometer and extinction coefficients were determined by standard Beer's Law calculations.
Uncorrected fluorescence data was obtained on a Perkin-Elmer Model 650-40 Fluorescence Spectrophotometer equipped with a Perkin-Elmer/Hitachi 057 X-Y Recorder using a ten- to twentyfold dilution of the absorbance solutions. Fluorescence of the pyrenyloxy sulfonic acid dyes was determined for the reactive dyes and for their conjugates with model compounds by dissolving the dye at a concentration above 1×10^-8M in an appropriate solvent such as water, methanol, ethanol, or dimethylsulfoxide and measurement of the fluorescence in a suitable instrument, such as a fluorescence spectrometer or fluorescence microscope or flow cytometer. Fluorescence could also be observed for the dyes in solution by visual inspection with illumination by a suitable source that emits light at wavelengths of less than 420 nm.

[3] = Comparison of spectral properties of reactive dyes, Table 1; type: physicochemical; conditions: for ε: at first maximum; for Abs Max: first maximum; for Emission Bandwidth / Emission Bandwidth [cm^-1]: full bandwidth at half peak height; for Quantum Yield: in aqueous solution, grade in words; for % Emission at 514 nm: percent of maximum emission at 514 nm
From the text: A number of dyes have been proposed in the literature that can be excited and detected at wavelengths less than 500 nm. Several chemically reactive fluorophores that can be excited in the near ultraviolet and short wavelength visible region of the spectrum have been described. […] These proposed tracers are derived from naphthalene derivatives such as 5-dimethylaminonaphthalene-1-sulfonic acid (Dansyl) [Weber, Biochem. J. 41:145 (1952); Rinderknecht, Experientin 16:430 (1960)], 3-(isothiocyanato)naphthalene-1,5-disulfonic acid [Braunitzer, et al., Hoppe-Seyler's Z. Physiol. […] Chem. 358:505 (1977)], pyrene derivatives such as pyrene-1-butyric acid (PBA) [Malencik & Anderson, Biochemistry 11:3022 (1972)], 8-isothiocyanatopyrene-1,3,6-trisulfonic acid (IPTS) [Braunitzer,et al., Hoppe-Seyler's Z. Physiol. Chem. 354:1536 (1973)] and 8-hydroxypyrene-1,3,6-trisulfonyl chloride [Wolfbeis, Fresenies Z. Anal. Chem. 320:271 (1985)], stilbene derivatives such as 4-acetamido-4'-isothiocyanatostilbene-2,2'-disulfonic acid (SITS) [Cornelisse & Ploem, J. Histochem. Cytochem. 24:72 (1976)], and coumarin dyes such as 3-carboxy-7-hydroxycoumarin [Baker & Collis, J. Chem. Soc. 1949, S 12 (1949)], 7-hydroxy-4-methylumbelliferone-3-acetic acid (4-MUA) [Khalfan, et al., Biochem. J. 209:265 (1983)], 7-amino-4-methylcoumarin-3-acetic acid (AMCA) [Khalfan, et al., Histochem. J. 18:497 (1986)] and 7-diethylaminocoumarin [Staines, et al. (1988)].

[4] = Solubility in water / aqueous solution; conditions: solubility of the reactive form of the dye; grade in words
[5] = background statement; cited from earlier work
[6] = cited from earlier work
[7] = physiological range (pH 6 to 8); cited from earlier work
[8] = first (longer-wavelength) maximum
[9] = second (shorter-wavelength) maximum

Structure (SMILES): CC(C)(C)OC(=O)N1CCC[C@H]1C(=O)NCCNC(=O)COc1cc(S(=O)(=O)[O-])c2ccc3c(S(=O)(=O)[O-])cc(S(=O)(=O)[O-])c4ccc1c2c43.[Na+].[Na+].[Na+] [Compound 14, N-(1,3,6-Trisulfo-8-pyrenyloxyacetyl)-N'-(N-t-butoxycarbonyl-L-prolyl)-1,2-ethanediamine, trisodium salt]
Quantum Yield [1]: greater than 0.90 | Emission Band-width [2]: 49 nm | Emission at 514 nm [2]: 2.8 % of max | Em Max [2]: 422 nm | Abs Max [2, 8]: 399 nm

Structure (SMILES): O=S(=O)(O)c1cc(N=C=S)c2ccc3c(S(=O)(=O)O)cc(S(=O)(=O)O)c4ccc1c2c34 [IPTS, 8-isothiocyanatopyrene-1,3,6-trisulfonic acid]
Em. Max. [3]: 458 nm | ε [3]: 25600 M⁻¹ cm⁻¹ | Abs Max [3]: 373 nm | Emission Bandwidth [3]: 78 nm | Emission Bandwidth [cm^-1] [3]: 3634 cm⁻¹ | Quantum Yield [3]: low | % Emission at 514 nm [3]: 38 % of max | Water Solubility [4]: high

Structure (SMILES): O=C(CCCc1ccc2ccc3cccc4ccc1c2c34)ON1C(=O)CCC1=O [succinimidyl pyrene-1-butyrate]
aqueous solubility / lipophilicity [5]: quite lipophilic and insoluble in the aqueous solutions

Structure (SMILES): O=C(COc1cc(S(=O)(=O)O)c2ccc3c(S(=O)(=O)O)cc(S(=O)(=O)O)c4ccc1c2c43)NCCO [Compound 10]
Emission Band-width [2]: 50 nm | Emission at 514 nm [2]: 3.3 % of max | Abs Max [2, 8]: 399 nm | Abs Max [2, 9]: 377 nm

Structure (SMILES): N#CCCCCCNC(=O)COc1cc(S(=O)(=O)O)c2ccc3c(S(=O)(=O)O)cc(S(=O)(=O)O)c4ccc1c2c43 [Compound 16]
Emission Band-width [2]: 49 nm | Emission at 514 nm [2]: 3.0 % of max | Abs Max [2, 8]: 399 nm | Abs Max [2, 9]: 377 nm

Structure (SMILES): O=C1OC2(c3ccc(O)cc3Oc3cc(O)ccc32)c2ccccc21 [fluorescein]
extinction coefficient ([6]; at absorbance maximum): 75,000 cm^-1 M^-1 | emission onset ([6]; beginning of visible emission): approximately 480 nm

Structure (SMILES): CC(C)(C)OC(=O)N1CCC[C@H]1C(=O)NCCCCCNC(=O)COc1cc(S(=O)(=O)O)c2ccc3c(S(=O)(=O)O)cc(S(=O)(=O)O)c4ccc1c2c43 [Compound 15]
Emission Band-width [2]: 50 nm | Emission at 514 nm [2]: 3.0 % of max | Abs Max [2, 8]: 399 nm | Abs Max [2, 9]: 377 nm

Em. Max. [3]: 578 nm | ε [3]: 4500 M⁻¹ cm⁻¹ | Abs Max [3]: 340 nm | Quantum Yield [3]: low | Water Solubility [4]: low
Structure (SMILES): CN(C)c1cccc2c(S(=O)(=O)O)cccc12 [Dansyl, 5-dimethylaminonaphthalene-1-sulfonic acid]

Structure (SMILES): O=S(=O)(Cl)c1cc(O)c2ccc3c(S(=O)(=O)Cl)cc(S(=O)(=O)Cl)c4ccc1c2c34 [hydroxypyrenetrisulfonyl chloride, 8-hydroxypyrene-1,3,6-trisulfonyl chloride]
sensitivity to solution pH [7]: high sensitivity to solution pH

Structure (SMILES): NCCCCCNC(=O)COc1cc(S(=O)(=O)O)c2ccc3c(S(=O)(=O)O)cc(S(=O)(=O)O)c4ccc1c2c43 [Compound 4, 1-(1,3,6-Trisulfo-8-pyrenloxyacetamido)-(5-aminopentane), trisodium salt]
Quantum Yield [1]: greater than 0.90 | Emission Band-width [2]: 50 nm | Emission at 514 nm [2]: 3.9 % of max | Em Max [2]: 422 nm | ε ([2]; at first maximum): 27.6 10^3 M^-1 cm^-1 | ε ([2]; at second maximum): 22.8 10^3 M^-1 cm^-1 | Abs Max [2, 9]: 377 nm

Structure (SMILES): N.N.N.NNC(=O)COc1cc(S(=O)(=O)O)c2ccc3c(S(=O)(=O)O)cc(S(=O)(=O)O)c4ccc1c2c43 [Compound 13, 1,3,6-Trisulfo-8-pyrenyloxyacethydrazide, triammonium salt]
Emission Band-width [2]: 50 nm | Emission at 514 nm [2]: 3.8 % of max | Abs Max [2, 8]: 399 nm | Abs Max [2, 9]: 376 nm

Structure (SMILES): C=CC(=O)NCCCCCNC(=O)COc1cc(S(=O)(=O)O)c2ccc3c(S(=O)(=O)O)cc(S(=O)(=O)O)c4ccc1c2c43 [Compound 19]
Emission Band-width [2]: 49 nm | Emission at 514 nm [2]: 2.9 % of max | Abs Max [2, 8]: 399 nm

Structure (SMILES): COC(=O)COc1cc(OCC(=O)OC)c2ccc3c(S(=O)(=O)O)cc(S(=O)(=O)O)c4ccc1c2c43 [Compound 21, Dimethyl 1,3-disulfo-6-carboxymethoxy-8-pyrenyloxyacetic acid, disodium salt]
Emission Band-width [2]: 55 nm | Emission at 514 nm [2]: 13.0 % of max | Em Max [2]: 447 nm | ε ([2]; at first maximum): 24.5 10^3 M^-1 cm^-1 | Abs Max [2, 8]: 396 nm

Structure (SMILES): NCCNC(=O)COc1cc(S(=O)(=O)O)c2ccc3c(S(=O)(=O)O)cc(S(=O)(=O)O)c4ccc1c2c43 [Compound 3, 1,3,6-Trisulfo-8-pyrenyloxyacetamido-1-(2-aminoethane), trisodium salt]
Emission Band-width [2]: 50 nm | Emission at 514 nm [2]: 4.9 % of max | Abs Max [2, 8]: 399 nm

Em. Max. [3]: 454 nm | ε [3]: 19100 M⁻¹ cm⁻¹ | Abs Max [3]: 360 nm | Emission Bandwidth [3]: 58 nm | Emission Bandwidth [cm^-1] [3]: 2668 cm⁻¹ | Quantum Yield [3]: med. | % Emission at 514 nm [3]: 20 % of max | Water Solubility [4]: low
Structure (SMILES): Cc1c(CC(=O)O)c(=O)oc2cc(O)ccc12 [Compound 4-MUA, 7-hydroxy-4-methylumbelliferone-3-acetic acid]
sensitivity to solution pH [7]: high sensitivity to solution pH

Em. Max. [3]: 442 nm | ε [3]: 15200 M⁻¹ cm⁻¹ | Abs Max [3]: 354 nm | Emission Bandwidth [3]: 57 nm | Emission Bandwidth [cm^-1] [3]: 2858 cm⁻¹ | Quantum Yield [3]: med. | % Emission at 514 nm [3]: 12 % of max | Water Solubility [4]: low
Structure (SMILES): Cc1c(CC(=O)O)c(=O)oc2cc(N)ccc12 [AMCA, 7-amino-4-methylcoumarin-3-acetic acid]

Structure (SMILES): Cc1c(CC(=O)ON2C(=O)CCC2=O)c(=O)oc2cc(N)ccc12 [succinimidyl ester of AMCA]
aqueous solubility / lipophilicity [5]: quite lipophilic and insoluble in the aqueous solutions

Structure (SMILES): O=C(O)CCCc1ccc2ccc3cccc4ccc1c2c34 [PBA, pyrene-1-butyric acid]
Em. Max. [3]: 377 nm | ε [3]: 45100 M⁻¹ cm⁻¹ | Abs Max [3]: 341 nm | Quantum Yield [3]: low | % Emission at 514 nm [3]: 2 % of max | Water Solubility [4]: low

Structure (SMILES): O=C(O)COc1cc(S(=O)(=O)[O-])c2ccc3c(S(=O)(=O)[O-])cc(S(=O)(=O)[O-])c4ccc1c2c43.[Na+].[Na+].[Na+] [Compound 2, 1,3,6-Trisulfo-8-pyrenyloxyacetic acid, trisodium salt]
Quantum Yield [1]: greater than 0.90 | Emission Band-width [2]: 52 nm | Emission at 514 nm [2]: 5.8 % of max | Em Max [2]: 430 nm | ε ([2]; at first maximum): 27.0 10^3 M^-1 cm^-1 | ε ([2]; at second maximum): 19.8 10^3 M^-1 cm^-1 | Abs Max [2, 9]: 374 nm

Structure (SMILES): NNC(=O)COc1cc(S(=O)(=O)O)c2ccc3c(S(=O)(=O)O)cc(S(=O)(=O)O)c4ccc1c2c43 [Compound 11, 1,3,6-Trisulfo-8-pyrenyloxyacethydrazide, free sulfonic acid]
Emission Band-width [2]: 51 nm | Abs Max [2, 8]: 399 nm | Abs Max [2, 9]: 377 nm

Structure (SMILES): [N-]=[N+]=Nc1ccc(C(=O)NCCCCCNC(=O)COc2cc(S(=O)(=O)[O-])c3ccc4c(S(=O)(=O)[O-])cc(S(=O)(=O)[O-])c5ccc2c3c54)cc1.[Na+].[Na+].[Na+] [Compound 20, N-(1,3,6-Trisulfo-8-pyrenyloxyacetyl)-N'-(4-azidobenzoyl)-1,5-pentanediamine, trisodium salt]
Emission Band-width [2]: 50 nm | Emission at 514 nm [2]: 3.5 % of max | Em Max [2]: 424 nm | Abs Max [2, 8]: 400 nm
